Source: patent US6825199B2, “7-Substituted quinazolin-2,4-diones useful as antibacterial agents” (Warner-Lambert Company, priority 1997, dated 2004)
Values after ≈ are worked out from the molar mass of the structure shown.

How the values were obtained:
S. aureus 29213 = test: Antibacterial assay, standard microtitration (MIC); type: cell-based; details: Gram positive; for MIC: Staphylococcus aureus, 29213, read-out: Minimum Inhibitory Concentrations S. aureus 29213
Description: (§1) Antibacterial assay: The compounds of the present invention were tested against an assortment of Gram negative and Gram positive organisms using standard microtitration techniques (Cohen, et al., Antimicrob. Agents Chemother., 1985;28:766; Heifetz, et al., Antimicrob. Agents Chemother., 1974;6:124).

E. coli MC4100 = test: Antibacterial assay, standard microtitration (MIC); type: cell-based; details: Gram negative; for MIC: Escherichia coli, MC4100, read-out: Minimum Inhibitory Concentrations E. coli MC4100
Description: as §1

B. subtilis RB1 = test: Antibacterial assay, standard microtitration (MIC); type: cell-based; details: Bacillus subtilis, Gram positive, read-out: Minimum Inhibitory Concentrations B. subtilis RB1
Description: as §1

S. pyogenes C203 = test: Antibacterial assay, standard microtitration (MIC); type: cell-based; details: Gram positive; for MIC: Streptococcus pyogenes, C203, read-out: Minimum Inhibitory Concentrations S. pyogenes C203
Description: as §1

E. coli Tol C = test: Antibacterial assay, standard microtitration (MIC); type: cell-based; details: for MIC: Escherichia coli, read-out: Minimum Inhibitory Concentrations E. coli Tol C
Description: as §1

E. coli B90 = test: Antibacterial assay, standard microtitration (MIC); type: cell-based; details: Gram negative; for MIC: Escherichia coli, B90, read-out: Minimum Inhibitory Concentrations E. coli B90
Description: as §1

E. coli gyrase = target: T1, E. coli gyrase (Escherichia coli, UniProt P0AES4+P0AES6); test: DNA gyrase supercoiling inhibition assay; type: biochemical; details: supercoiling of relaxed pBR322, 30 minutes at 37° C.; read-out: Gyrase IC50
T1 construct: purchased Lucent, Ltd., Leicester, UK
T1 sequence (P0AES4 whole entry, one chain of several): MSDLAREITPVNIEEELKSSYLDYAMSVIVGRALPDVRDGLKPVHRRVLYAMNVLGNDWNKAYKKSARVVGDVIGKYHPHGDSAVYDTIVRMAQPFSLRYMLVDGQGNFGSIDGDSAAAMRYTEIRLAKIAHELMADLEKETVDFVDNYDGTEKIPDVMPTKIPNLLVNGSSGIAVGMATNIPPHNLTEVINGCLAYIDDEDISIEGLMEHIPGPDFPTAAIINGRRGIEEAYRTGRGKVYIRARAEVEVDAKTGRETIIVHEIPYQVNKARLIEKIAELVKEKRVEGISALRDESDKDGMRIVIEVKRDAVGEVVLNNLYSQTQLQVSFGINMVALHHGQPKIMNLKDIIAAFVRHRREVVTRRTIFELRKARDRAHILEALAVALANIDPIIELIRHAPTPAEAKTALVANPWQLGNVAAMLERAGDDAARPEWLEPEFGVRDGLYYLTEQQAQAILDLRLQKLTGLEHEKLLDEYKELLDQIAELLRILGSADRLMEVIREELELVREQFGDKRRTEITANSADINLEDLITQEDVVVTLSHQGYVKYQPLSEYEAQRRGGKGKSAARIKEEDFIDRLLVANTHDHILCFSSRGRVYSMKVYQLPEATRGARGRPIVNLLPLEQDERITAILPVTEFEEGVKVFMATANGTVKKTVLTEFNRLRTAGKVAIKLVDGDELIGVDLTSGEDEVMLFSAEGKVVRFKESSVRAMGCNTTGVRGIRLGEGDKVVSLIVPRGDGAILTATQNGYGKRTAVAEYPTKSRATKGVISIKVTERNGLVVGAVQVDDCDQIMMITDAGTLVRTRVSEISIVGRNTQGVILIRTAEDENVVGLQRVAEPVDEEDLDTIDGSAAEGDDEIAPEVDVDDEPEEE
Description: DNA gyrase assay: The effects of test agents on the activity of DNA gyrase was determined by the supercoiling inhibition assay, following reaction conditions recommended by the enzyme supplier (Lucent, Ltd., Leicester, UK), as follows. Reactions were performed in buffer G (35 mM Tris-HCl (pH 7.5), 24 mM KCl, 4 mM MgCl2, 2 mM DTT, 1.8 mM spermidine, 1 mM ATP, 0.1 mg/mL bovine serum albumin). 0.25 μg of relaxed plasmid pBR322 (Lucent, Ltd., Leicester, UK) was reacted with 1 U E. coli gyrase (Lucent, Ltd., Leicester, UK), in the absence or presence of drugs, for 30 minutes at 37° C. Reactions were stopped by the addition of SDS and proteinase K to respective final concentrations of 1% and 0.5 mg/mL. After an additional 30 minutes at 37° C., one-tenth volume of 10×loading buffer (0.3% bromophenol blue, 16% Ficoll, 10 mM Na2HPO4) was added, and reactions were loaded onto agarose gels and electrophoresed as described above for intercalation assays. The concentration of drug inhibiting 50% of the supercoiling activity of DNA gyrase is given as an IC50 and recorded in Table 2.

E. coli Topoisomerase IV = target: T2, E. coli Topoisomerase IV (Escherichia coli, UniProt P0AFI2+P20083); test: Topoisomerase IV k-DNA decatenation assay; type: biochemical; details: k-DNA decatenation, 10 minutes at 37° C.; read-out: DNA TopIV IC50
T2 construct: made in house; host or cells: E. coli overexpressing strains
T2 sequence (P20083 whole entry): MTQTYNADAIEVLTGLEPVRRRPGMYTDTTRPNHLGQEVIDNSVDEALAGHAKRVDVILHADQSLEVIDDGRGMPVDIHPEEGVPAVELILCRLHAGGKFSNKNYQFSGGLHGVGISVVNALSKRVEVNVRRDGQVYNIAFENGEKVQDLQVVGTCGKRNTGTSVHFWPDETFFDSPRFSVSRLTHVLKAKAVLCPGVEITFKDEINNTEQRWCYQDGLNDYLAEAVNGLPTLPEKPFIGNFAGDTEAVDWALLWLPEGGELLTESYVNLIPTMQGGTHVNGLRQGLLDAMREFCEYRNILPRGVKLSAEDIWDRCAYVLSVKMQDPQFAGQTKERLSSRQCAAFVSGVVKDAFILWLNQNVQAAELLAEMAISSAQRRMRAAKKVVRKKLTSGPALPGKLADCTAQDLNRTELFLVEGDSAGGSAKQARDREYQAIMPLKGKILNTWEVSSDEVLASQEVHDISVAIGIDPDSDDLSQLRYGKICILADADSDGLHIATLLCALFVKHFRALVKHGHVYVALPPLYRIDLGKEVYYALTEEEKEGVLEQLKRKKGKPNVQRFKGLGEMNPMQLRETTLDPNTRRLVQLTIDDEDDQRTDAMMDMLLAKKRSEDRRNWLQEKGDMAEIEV
T2 sequence (P0AFI2 whole entry): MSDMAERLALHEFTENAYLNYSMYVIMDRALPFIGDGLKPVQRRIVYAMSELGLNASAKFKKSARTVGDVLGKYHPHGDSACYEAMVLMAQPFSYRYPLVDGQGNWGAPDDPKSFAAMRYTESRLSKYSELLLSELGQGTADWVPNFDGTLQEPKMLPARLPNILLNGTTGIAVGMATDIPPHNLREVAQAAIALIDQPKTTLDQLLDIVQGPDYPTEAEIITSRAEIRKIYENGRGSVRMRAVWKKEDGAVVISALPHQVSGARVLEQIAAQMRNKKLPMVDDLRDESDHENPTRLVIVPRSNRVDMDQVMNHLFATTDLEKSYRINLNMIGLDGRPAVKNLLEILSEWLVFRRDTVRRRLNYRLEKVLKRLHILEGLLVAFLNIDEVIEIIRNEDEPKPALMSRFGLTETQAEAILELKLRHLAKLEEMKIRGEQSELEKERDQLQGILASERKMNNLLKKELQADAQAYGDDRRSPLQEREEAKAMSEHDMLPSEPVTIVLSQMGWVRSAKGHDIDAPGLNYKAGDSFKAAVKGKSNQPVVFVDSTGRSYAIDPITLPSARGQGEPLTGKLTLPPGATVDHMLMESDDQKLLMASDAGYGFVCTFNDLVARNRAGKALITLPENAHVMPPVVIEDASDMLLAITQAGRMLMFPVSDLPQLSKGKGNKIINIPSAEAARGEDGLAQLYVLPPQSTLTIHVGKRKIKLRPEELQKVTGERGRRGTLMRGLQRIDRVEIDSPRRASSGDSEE
Description: Topoisomerase IV assay: Topoisomerase IV was purified from E. coli overexpressing strains, and the compounds were assayed according to literature conditions (Journal of Biological Chemistry, 1993;268(32):24481). The k-DNA decatenation assay was used. Briefly, reactions were performed in buffer R (40 mM Tris-HCl (pH 7.5),6 mM MgCl2, 10 mM DTT, 100 mM potassium glutamate, 40 μM ATP, 50 μg/mL bovine serum albumin, 10 mM NaCl). Two-tenths microgram of kinetoplast DNA (k-DNA; TopoGen, Columbus, Ohio) was incubated with 5 ng of E. coli Topoisomerase IV in the presence or absence of test compounds for 10 minutes at 37° C. Subsequently, one-tenth volume of 10×gel loading buffer (0.3% bromophenol blue, 16% Ficoll, 10 mM Na2HPO4) was added, and samples were loaded onto horizontal 0.8% agarose gels prepared with TBE buffer and containing 0.05 μg/mL of ethidium bromide. Electrophoresis was at 70 V for 2 to 4 hours. Gels were then examined by exposure to UV light. The concentration of drug inhibiting 50% of the decantenating activity of Topoisomerase IV is given as an IC50 and recorded in Table 2.

| SMILES | MIC (S. aureus 29213) | MIC (E. coli MC4100) | MIC (B. subtilis RB1) | MIC (S. pyogenes C203) | MIC (E. coli Tol C) | MIC (E. coli B90) | IC50 (E. coli gyrase) | IC50 (E. coli Topoisomerase IV) | Minimum Inhibitory Concentrations S. aureus 29213 (S. aureus 29213) | Minimum Inhibitory Concentrations E. coli MC4100 (E. coli MC4100) | Minimum Inhibitory Concentrations S. pyogenes C203 (S. pyogenes C203) | Minimum Inhibitory Concentrations E. coli Tol C (E. coli Tol C; Gram negative) | Minimum Inhibitory Concentrations E. coli B90 (E. coli B90) |
| --- | --- | --- | --- | --- | --- | --- | --- | --- | --- | --- | --- | --- | --- |
| O=c1c2cc(F)c(N3CCCC3)cc2n(C2CC2)c(=O)n1O [Example 38, 1-Cyclopropyl-6-fluoro-3-hydroxy-7-(pyrrolidin-1-yl)-1H-quinazoline-2,4-dione] | 1 mg/L (≈ 3.28 µM) | 8 mg/L (≈ 26.2 µM) | 0.25 mg/L (≈ 0.819 µM) | 16 mg/L (≈ 52.4 µM) | 0.1 mg/L (≈ 0.328 µM) | 0.1 mg/L (≈ 0.328 µM) | 6.6 µM | 57 µM | – | – | – | – | – |
| NC1C2CN(c3c(F)cc4c(=O)n(O)c(=O)n5c4c3SCC5)CC12.O=C(O)C(F)(F)F (stereo not drawn) [Example 46, (1α,5α,6α)9-(6-Amino-3-aza-bicyclo[3.1.0]hex-3-yl)-8-fluoro-5-hydroxy-2,3-dihydro-1-thia-3α,5-diaza-phenalene-4,6-dione, trifluoroacetate] | – | – | – | – | – | – | 8.3 µM | – | >64 µg/mL | 8.0 µg/mL | 32 µg/mL | 1.0 µg/mL | 2.0 µg/mL |
| CCn1c(=O)n(O)c(=O)c2cc(F)c(N3CCCC3)cc21 [Example 1, 1-Ethyl-6-fluoro-3-hydroxy-7-pyrrolidin-1-yl-1H-quinazoline-2,4-dione] | 32 mg/L (≈ 109 µM) | > 64 mg/L | 4 mg/L (≈ 13.6 µM) | 32 mg/L (≈ 109 µM) | 1 mg/L (≈ 3.41 µM) | 2 mg/L (≈ 6.82 µM) | – | – | – | – | – | – | – |
| Cl.NC1CCN(c2cc3c(cc2F)c(=O)n(O)c(=O)n3-c2ccc(F)cc2)C1 (stereo not drawn) [Example 17, 1-(4-Fluorophenyl)-6-fluoro-3-hydroxy-7-(3-aminopyrrolidin-1-yl)-1H-quinazoline-2,4-dione, hydrochloride] | > 64 mg/L | > 64 mg/L | – | 32 mg/L | 32 mg/L | 64 mg/L | – | – | – | – | – | – | – |
| O=c1c2cc(F)c(N3CCCC3)nc2n(-c2ccc(F)cc2)c(=O)n1O [Example 56, 6-Fluoro-1-(4-fluorophenyl)-3-hydroxy-7-pyrrolidin-1-yl-1H-pyrido[2,3-d]pyrimidine-2,4-dione] | 8 mg/L (≈ 22.2 µM) | 16 mg/L (≈ 44.4 µM) | – | 8 mg/L (≈ 22.2 µM) | 0.13 mg/L (≈ 0.361 µM) | 0.13 mg/L (≈ 0.361 µM) | – | – | – | – | – | – | – |
| O=c1c2cc(F)c(N3CCCC3)cc2n(-c2ccc(O)cc2)c(=O)n1O [Example 14, 1-(4-Hydroxyphenyl)-6-fluoro-3-hydroxy-7-pyrrolidin-yl-1-1H-quinazoline-2,4-dione] | 32 mg/L (≈ 89.6 µM) | 64 mg/L (≈ 179 µM) | – | 64 mg/L (≈ 179 µM) | 1 mg/L (≈ 2.8 µM) | 4 mg/L (≈ 11.2 µM) | 46 µM | – | – | – | – | – | – |
| O=c1c2cc(F)c(N3CCCC3)c3c2n(c(=O)n1O)CCS3 [Example 44, 8-Fluoro-5-hydroxy-9-pyrrolidin-1-yl-2,3-dihydro-1-thia-3α,5-diaza-phenalene-4,6-dione] | 4 mg/L (≈ 12.4 µM) | > 64 mg/L | – | 32 mg/L (≈ 99 µM) | 1 mg/L (≈ 3.09 µM) | 1 mg/L (≈ 3.09 µM) | 12 µM | > 100 µM | – | – | – | – | – |
| CCn1c(=O)n(O)c(=O)c2cc(F)c(N3CCCCC3)cc21 [Example 4, 1-Ethyl-6-fluoro-3-hydroxy-7-piperidin-1-yl-1H-quinazoline-2,4-dione] | 64 mg/L (≈ 208 µM) | > 64 mg/L | 8 mg/L (≈ 26 µM) | 64 mg/L (≈ 208 µM) | 16 mg/L (≈ 52.1 µM) | 16 mg/L (≈ 52.1 µM) | – | – | – | – | – | – | – |
| CCn1c(=O)n(O)c(=O)c2cc(F)c(N3CCC(N)C3)nc21.O=C(O)C(F)(F)F (stereo not drawn) [Example 36, 7-(3-Aminopyrrolidin-1-yl)-1-ethyl-6-fluoro-3-hydroxy-1H-pyrido[2,3-d]pyrimidine-2,4-dione, trifluoroacetate] | 64 mg/L | 8 mg/L | – | 32 mg/L | 2 mg/L | 2 mg/L | – | – | – | – | – | – | – |
